# Experiments:
# [1] = biological target: Somatostatin receptor type 1 (Rattus norvegicus, UniProt P28646); assay: Displacement of [125I]SRIF14 from rat sst1 receptor from rat brain cortex membrane
# [2] = biological target: Somatostatin receptor type 2 (Rattus norvegicus, UniProt P30680); assay: Displacement of [125I]SRIF14 from rat sst2 receptor from rat brain cortex membrane
# Rattus norvegicus [3] = organism: Rattus norvegicus; assay: Selectivity for rat sst1 receptor over rat sst2 receptor
# [4] = Ratio of drug level in brain to plasma in mouse at 10 mg/kg, po after 1 hr; type: ADME, organism-based; design: dose 10 mg/kg, route oral; conditions: brain and plasma, read-out: BPR
# [5] = Oral bioavailability in rat at 10 mg/kg; type: ADME, organism-based; conditions: in vivo
# [6] = Clearance in rat at 10 mg/kg, po; type: ADME, organism-based; design: dose 10 mg/kg, route oral; conditions: in vivo
# Rattus norvegicus [7] = assay: Volume of distribution at steady state in rat at 10 mg/kg, po; type: ADME, organism-based; design: dose 10 mg/kg, route oral; conditions: in vivo
# [8] = Ratio of drug level in brain to plasma in rat at 10 to 100 mg/kg, po after 90 mins; type: ADME, organism-based; design: dose 10-100 mg/kg, route oral; conditions: brain and plasma, read-out: BPR
# Somatostatin receptor type 1, sequence (P28646 whole entry): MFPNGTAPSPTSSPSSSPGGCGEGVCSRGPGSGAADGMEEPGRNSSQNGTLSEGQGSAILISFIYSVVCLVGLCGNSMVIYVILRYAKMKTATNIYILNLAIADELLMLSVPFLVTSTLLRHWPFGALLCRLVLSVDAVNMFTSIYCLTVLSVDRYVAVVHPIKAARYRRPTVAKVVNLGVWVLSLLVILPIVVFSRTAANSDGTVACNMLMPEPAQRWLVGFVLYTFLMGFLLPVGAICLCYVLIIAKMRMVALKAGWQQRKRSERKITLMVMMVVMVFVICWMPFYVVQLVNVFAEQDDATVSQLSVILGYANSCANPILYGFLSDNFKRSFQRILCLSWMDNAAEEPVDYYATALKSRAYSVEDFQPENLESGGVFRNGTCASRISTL
# Somatostatin receptor type 2, sequence (P30680 whole entry): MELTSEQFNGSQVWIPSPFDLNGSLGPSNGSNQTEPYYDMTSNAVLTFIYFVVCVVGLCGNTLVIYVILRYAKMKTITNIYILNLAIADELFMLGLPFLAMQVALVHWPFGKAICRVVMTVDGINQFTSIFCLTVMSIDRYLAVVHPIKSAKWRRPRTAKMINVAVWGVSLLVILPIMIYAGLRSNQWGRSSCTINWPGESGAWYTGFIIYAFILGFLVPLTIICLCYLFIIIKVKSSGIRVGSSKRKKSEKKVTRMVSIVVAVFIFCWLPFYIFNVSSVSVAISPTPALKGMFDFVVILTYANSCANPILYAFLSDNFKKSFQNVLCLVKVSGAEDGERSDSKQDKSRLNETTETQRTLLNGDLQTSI
SMILES,Kd [1],Kd [2],further results
COc1cccc2c1C[C@H]1C[C@@H](C(=O)N3CC=C(c4ccc(Cl)cc4)CC3)CN(C)[C@@H]1C2,81.3 nM,2510 nM,
COc1cccc2c1C[C@H]1C[C@@H](C(=O)N3CCN(c4ccc(C(=O)O)cc4)CC3)CN(C)[C@@H]1C2,81300 nM,251000 nM,
COc1cccc2c1C[C@H]1C[C@@H](C(=O)N3CCN(c4cc(C)nc5ccccc45)CC3)CN(C)[C@@H]1C2,692 nM,5250 nM,
COc1cccc2c1C[C@H]1C[C@@H](C(=O)N3CCCN(c4ccccn4)CC3)CN(C)[C@@H]1C2,209 nM,34700 nM,
COc1cccc2c1C[C@H]1C[C@@H](C(=O)N3CCN(c4ccc(S(C)(=O)=O)cc4)CC3)CN(C)[C@@H]1C2,631 nM,8710 nM,
COc1cccc2c1C[C@H]1C[C@@H](C(=O)N3CCN(c4ccncc4)CC3)CN(C)[C@@H]1C2,1860 nM,17800 nM,
COc1cccc2c1C[C@H]1C[C@@H](C(=O)N3CCc4c([nH]c5ccccc45)C3)CN(C)[C@@H]1C2,70.8 nM,6170 nM,
O=[As][As+](=O)[O-] (stereo not given) [ARSENIC TRIOXIDE],52.5 nM,25100 nM,
COc1cccc2c1C[C@H]1C[C@@H](C(=O)N3CCN(c4ccc([N+](=O)[O-])cc4C#N)CC3)CN(C)[C@@H]1C2,3.24 nM,4370 nM,
COc1cccc2c1C[C@H]1C[C@@H](C(=O)N3CCN(c4cccc(OCc5ccccc5)n4)CC3)CN(C)[C@@H]1C2,105 nM,6610 nM,
CCN(CC)C(=O)c1ccc(N2CCN(C(=O)[C@@H]3C[C@@H]4Cc5c(cccc5OC)C[C@H]4N(C)C3)CC2)cc1,1700 nM,20000 nM,
COc1cccc2c1C[C@H]1C[C@@H](C(=O)N3CCN(c4ccc(C(F)(F)F)cc4[N+](=O)[O-])CC3)CN(C)[C@@H]1C2,110 nM,4900 nM,
COc1cccc2c1C[C@H]1C[C@@H](C(=O)N3CCN(c4ccc5nccn5n4)CC3)CN(C)[C@@H]1C2,87.1 nM,20900 nM,
COc1cccc2c1C[C@H]1C[C@@H](C(=O)N3CCN(c4ccc(C(C)=O)cc4)CC3)CN(C)[C@@H]1C2,151 nM,8710 nM,
COc1cccc2c1C[C@H]1C[C@@H](C(=O)N3CCN(c4cccc5ccccc45)CC3)CN(C)[C@@H]1C2,87.1 nM,5500 nM,
COc1cccc2c1C[C@H]1C[C@@H](C(=O)N3CCNCC3)CN(C)[C@@H]1C2,10500 nM,43700 nM,

SMILES,Kd [1],Kd [2],further results
COC(=O)c1ccc(N2CCN(C(=O)[C@@H]3C[C@@H]4Cc5c(cccc5OC)C[C@H]4N(C)C3)CC2)cc1,162 nM,14800 nM,
COc1cccc2c1C[C@H]1C[C@@H](C(=O)N3CCN(c4ccc(C(F)(F)F)cn4)CC3)CN(C)[C@@H]1C2,105 nM,20000 nM,
COc1cccc2c1C[C@H]1C[C@@H](C(=O)N3CCN(c4ccccn4)CC3)CN(C)[C@@H]1C2,17.4 nM,10200 nM,
COc1cccc2c1C[C@H]1C[C@@H](C(=O)N3CCN(c4cc5ccccc5cn4)CC3)CN(C)[C@@H]1C2,288 nM,5500 nM,
COc1cccc2c1C[C@H]1C[C@@H](C(=O)N3CCN(Cc4ccccc4)CC3)CN(C)[C@@H]1C2,457 nM,9120 nM,
COc1cccc2c1C[C@H]1C[C@@H](C(=O)N3CCN(c4ccc(O)cc4)CC3)CN(C)[C@@H]1C2,631 nM,24500 nM,
COc1cccc2c1C[C@H]1C[C@@H](C(=O)N3CCN(c4ncccc4OS(=O)(=O)C(F)(F)F)CC3)CN(C)[C@@H]1C2,562 nM,10500 nM,
COc1cccc2c1C[C@H]1C[C@@H](C(=O)N3CCCN(c4ccc([N+](=O)[O-])cc4)CC3)CN(C)[C@@H]1C2,263 nM,22400 nM,
COc1cccc2c1C[C@H]1C[C@@H](C(=O)N3CC=C(c4ncccn4)CC3)CN(C)[C@@H]1C2,490 nM,2400 nM,
COc1cccc2c1C[C@H]1C[C@@H](C(=O)N3CCN(c4ccc(S(N)(=O)=O)cc4)CC3)CN(C)[C@@H]1C2,589 nM,9120 nM,
COc1cccc2c1C[C@H]1C[C@@H](C(=O)N3CCN(c4ncccn4)CC3)CN(C)[C@@H]1C2,468 nM,27500 nM,
COc1cccc2c1C[C@H]1C[C@@H](C(=O)N3CCN(c4ccc(C(F)(F)F)cc4)CC3)CN(C)[C@@H]1C2,275 nM,5130 nM,
COc1cccc2c1C[C@H]1C[C@@H](C(=O)N3CCN(c4ccc(C(N)=O)cc4)CC3)CN(C)[C@@H]1C2,1510 nM,16600 nM,
COc1cccc2c1C[C@H]1C[C@@H](C(=O)N3CCN(c4cc5nccnc5cn4)CC3)CN(C)[C@@H]1C2,355 nM,7080 nM,
COc1cccc2c1C[C@H]1C[C@@H](C(=O)N3CCC(n4c(=O)[nH]c5ccccc54)CC3)CN(C)[C@@H]1C2,490 nM,2040 nM,

# The next lines start with results.
Kd [1],Kd [2],SMILES,further results
1.23 nM,5750 nM,COc1cccc2c1C[C@H]1C[C@@H](C(=O)N3CCN(c4ccc5nsnc5n4)CC3)CN(C)[C@@H]1C2,Selectivity ratio (Rattus norvegicus [3]): > 4600; Kp at 1 h [4]: 1.8
1.7 nM,3470 nM,COc1cccc2c1C[C@H]1C[C@@H](C(=O)N3CCN(c4ccc5nonc5c4)CC3)CN(C)[C@@H]1C2,
1.32 nM,6760 nM,COc1cccc2c1C[C@H]1C[C@@H](C(=O)N3CCN(c4cccc([N+](=O)[O-])c4)CC3)CN(C)[C@@H]1C2,
1.74 nM,5250 nM,COc1cccc2c1C[C@H]1C[C@@H](C(=O)N3CCN(c4ccc([N+](=O)[O-])cc4S(C)(=O)=O)CC3)CN(C)[C@@H]1C2,
3.39 nM,26300 nM,COc1cccc2c1C[C@H]1C[C@@H](C(=O)N3CCN(c4ccc(F)cc4)CC3)CN(C)[C@@H]1C2,
0.708 nM,7760 nM,COc1cccc2c1C[C@H]1C[C@@H](C(=O)N3CCN(c4ccc([N+](=O)[O-])cc4)CC3)CN(C)[C@@H]1C2 [OBELIN],Selectivity ratio (Rattus norvegicus [3]): > 10000; bioavailability [5]: 35%; CL/F [6]: 5 mL/min; Vdss (Rattus norvegicus [7]): 3 L/kg; Kp at 1.5 h [8]: 10
23.4 nM,13200 nM,COc1cccc2c1C[C@H]1C[C@@H](C(=O)N3CCN(c4cccc(C(F)(F)F)c4)CC3)CN(C)[C@@H]1C2,
8.13 nM,10000 nM,COc1cccc2c1C[C@H]1C[C@@H](C(=O)N3CCN(c4ccc(C#N)cc4)CC3)CN(C)[C@@H]1C2,
8.71 nM,5250 nM,COc1cccc2c1C[C@H]1C[C@@H](C(=O)N3CCN(c4cccc5ccc(C#N)cc45)CC3)CN(C)[C@@H]1C2,
3.55 nM,10200 nM,COc1cccc2c1C[C@H]1C[C@@H](C(=O)N3CCN(c4ccc(C#N)cn4)CC3)CN(C)[C@@H]1C2,
30.2 nM,2340 nM,COc1cccc2c1C[C@H]1C[C@@H](C(=O)N3CC=C(c4ccccn4)CC3)CN(C)[C@@H]1C2,
1.82 nM,11000 nM,COc1cccc2c1C[C@H]1C[C@@H](C(=O)N3CCN(c4cccc(=O)n4C)CC3)CN(C)[C@@H]1C2,
2.82 nM,16600 nM,COc1cccc2c1C[C@H]1C[C@@H](C(=O)N3CCN(c4cccc(F)c4C#N)CC3)CN(C)[C@@H]1C2,
3.31 nM,21400 nM,COc1cccc2c1C[C@H]1C[C@@H](C(=O)N3CCN(c4cccc(F)c4)CC3)CN(C)[C@@H]1C2,
0.741 nM,16600 nM,COc1cccc2c1C[C@H]1C[C@@H](C(=O)N3CCN(c4ccc(F)c(F)c4)CC3)CN(C)[C@@H]1C2,Selectivity ratio (Rattus norvegicus [3]): > 22000; Kp at 1 h [4]: 7.5
1.29 nM,11000 nM,COc1cccc2c1C[C@H]1C[C@@H](C(=O)N3CCN(c4ccccc4[N+](=O)[O-])CC3)CN(C)[C@@H]1C2,
17.8 nM,18600 nM,COc1cccc2c1C[C@H]1C[C@@H](C(=O)N3CCN(c4ccccc4F)CC3)CN(C)[C@@H]1C2,
7.59 nM,11700 nM,COc1cccc2c1C[C@H]1C[C@@H](C(=O)N3CCN(c4cccc(=O)[nH]4)CC3)CN(C)[C@@H]1C2,
5.75 nM,14100 nM,COc1cccc2c1C[C@H]1C[C@@H](C(=O)N3CCN(c4ccc5nccnc5n4)CC3)CN(C)[C@@H]1C2,
27.5 nM,2090 nM,COc1cccc2c1C[C@H]1C[C@@H](C(=O)N3CCN(c4ccc5ccccc5n4)CC3)CN(C)[C@@H]1C2,
10.7 nM,4270 nM,COc1cccc2c1C[C@H]1C[C@@H](C(=O)N3CCN(c4ccc5nsnc5c4)CC3)CN(C)[C@@H]1C2,Kp at 1 h [4]: 4.8
3.63 nM,3630 nM,COc1cccc2c1C[C@H]1C[C@@H](C(=O)N3CCN(c4cccc5nonc45)CC3)CN(C)[C@@H]1C2,
2.75 nM,10000 nM,COc1cccc2c1C[C@H]1C[C@@H](C(=O)N3CCN(c4cccc5nsnc45)CC3)CN(C)[C@@H]1C2,
2 nM,7410 nM,COc1cccc2c1C[C@H]1C[C@@H](C(=O)N3CCN(c4ccccc4C#N)CC3)CN(C)[C@@H]1C2,

# Source: ChEMBL document CHEMBL1139995, “SAR of the arylpiperazine moiety of obeline somatostatin sst1 receptor antagonists” (Bioorg Med Chem Lett, 2007)
